Counter-ions that a name gives are not always drawn.
Assay: Permanent wave processing of hair, wave efficiency by Kilby method
Settings: for Wave efficiency: compound at 2% in terms of reducing power of thioglycolic acid, soaked at 35° C. for 20 minutes, bromate second liquid 25° C. 10 minutes
Protocol: A permanent wave first liquid was prepared as described below using the alkoxyalkyl mercaptocarboxylate (TGE-1) obtained in Synthetic Example 1. A permanent wave second liquid was prepared as described below. Hair was permanent waved with these liquids, and the wave efficiency was obtained.
[…] The mixing was performed such that the total amount would be 100 g. A permanent wave first liquid was thus prepared.
The agent contained TGE-1 in an amount of 2% in terms of reducing power of thioglycolic acid.
5 g of sodium bromate and 95 g of purified water were mixed together to give a permanent wave second liquid.
The wave efficiency was evaluated by a Kilby method as described in Fragrance Journal Extra Edition (1984, No. 5, P. 442). A liquid containing cysteamine hydrochloride was used as the comparative agent.
Chinese hair (approximately 20 cm long) was fixed to a Kilby apparatus and was soaked in the permanent wave first liquid heated to 35° C. over a period of 20 minutes. Thereafter, the hair was lightly towel dried such that the first liquid would not drip. The hair was then given the bromate-based permanent wave second liquid, and was allowed to stand at 25° C. for 10 minutes. After the completion of the treatment with the second liquid, the hair was rinsed with running water and was removed from the Kilby apparatus, followed by drying. The dried hair was measured and the wave efficiency was determined from the following equation. Wave efficiency(%)=100−[100×(B−A)]÷(C−A) wherein:
A: Distance between the first and sixth rods of the Kilby apparatus (actual measurement value between the central points of the rods)
B: Length of six waves of curled hair
C: Length of straightened six waves of curled hair
A permanent wave first liquid was prepared as described in Example 1, except that TGE-1 was replaced with the alkoxyalkyl mercaptocarboxylate indicated in Table 1. The permanent wave first liquid contained the alkoxyalkyl mercaptocarboxylate in an amount of 2% in terms of reducing power of thioglycolic acid.
Hair was permanent waved and the wave efficiency was obtained by the procedure of Example 1 with use of the permanent wave first liquid prepared as above and the permanent wave second liquid used in Example 1.
A permanent wave first liquid was prepared as described in Example 1, except that TGE-1 was replaced with the cysteamine hydrochloride indicated in Table 1. The permanent wave first liquid contained the […] in an amount of 2% in terms of reducing power of thioglycolic acid.

Compound: 2-butoxyethyl thiolactate [TNE-3]
- Wave efficiency (pH 6 first liquid): 73%
- Wave efficiency (pH 7.5 first liquid): 73%
- Wave efficiency (pH 9 first liquid): 72%

Compound: NCCS [Cysteamine hydrochloride, cysteamine hydrochloride, reference compound]
- Behaviour of wave efficiency across pH range (neutral to acidic versus alkaline pH, summary of Table 1): drastic deterioration of wave efficiency with the pH lowering to a neutral to acidic region
- Wave efficiency (pH 6 first liquid): 52%
- Wave efficiency (pH 7.5 first liquid): 65%
- Wave efficiency (pH 9 first liquid): 73%

Compound: CCOCCOC(=O)CS [TGE-2, 2-ethoxyethyl thioglycolate]
- Wave efficiency (pH 6 first liquid): 84%
- Wave efficiency (pH 7.5 first liquid): 87%
- Wave efficiency (pH 9 first liquid): 86%

Compound: CCCCOCCOC(=O)CS [TGE-3, 2-butoxyethyl thioglycolate]
- Wave efficiency (pH 6 first liquid): 79%
- Wave efficiency (pH 7.5 first liquid): 79%
- Wave efficiency (pH 9 first liquid): 82%

Compound: CCOCCOCCOC(=O)CS [TGE-5, 5-ethoxy-3-oxapentyl thioglycolate]
- Wave efficiency (pH 6 first liquid): 70%
- Wave efficiency (pH 7.5 first liquid): 70%
- Wave efficiency (pH 9 first liquid): 71%

Compound: COCCOCCOCCOC(=O)CS [TGE-6, 8-methoxy-3,6-dioxaoctyl thioglycolate]
- Wave efficiency (pH 6 first liquid): 63%
- Wave efficiency (pH 7.5 first liquid): 67%
- Wave efficiency (pH 9 first liquid): 65%

Compound: COCC(C)OC(=O)CS (stereo not shown) [TGE-7, 2-methoxy-1-methylethyl thioglycolate]
- Wave efficiency (pH 6 first liquid): 79%
- Wave efficiency (pH 7.5 first liquid): 81%
- Wave efficiency (pH 9 first liquid): 81%

Compound: CCOCC(C)OC(=O)CS (stereo not shown) [TGE-8, 2-ethoxy-1-methylethyl thioglycolate]
- Wave efficiency (pH 6 first liquid): 80%
- Wave efficiency (pH 7.5 first liquid): 82%
- Wave efficiency (pH 9 first liquid): 83%

Compound: COCCOCCOCCOC(=O)CS [TGE-9, 8-methoxy-3,6-dioxaoctyl thioglycolate]
- Wave efficiency (pH 6 first liquid): 75%
- Wave efficiency (pH 7.5 first liquid): 75%
- Wave efficiency (pH 9 first liquid): 76%
